Data as given in article PMC6925622 (Clinical pharmacology and therapeutics, 2019).
≈ marks a conversion by molar mass, not a printed value. Where “and” joins values, the source holds several entries; their conditions need not be identical. Equal entries are not always repeated.

How the values were obtained:
[1] = test system: CYP3A5 and CYP3A4; conditions: preferentially inhibits CYP3A4; cited from earlier work
[2] = test system: CYP3A5; conditions: cited from earlier work
[3] = test system: CYP3A5; conditions: midazolam is the CYP3A probe, cited from earlier work
[4] = test system: CYP3A4/5; test: Clinical midazolam-ketoconazole interaction study; type: in vivo, human; conditions: for CLpo (oral clearance) / Cmax /Dose: oral midazolam
[5] = test system: CYP3A4; conditions: midazolam is the CYP3A probe, cited from earlier work
[6] = cited from earlier work
[7] = Clinical study control phase: midazolam pharmacokinetics by CYP3A5 genotype; type: in vivo, human; conditions: for Clearance Oral GM (90% CI): Observed, single dose of midazolam, blood clearance; for clearance: iv, 0.05 mg/kg, CLsys (systemic clearance), IV midazolam; for clearance / bioavailability / Tmax / half-life / CLpo (oral clearance) / Cmax /Dose: midazolam alone (control); for bioavailability: Fpo (oral bioavailability); for Tmax / CLpo (oral clearance) / Cmax /Dose: oral midazolam; for half-life: t1/2 (terminal half-life); for intestinal availability (FG): midazolam alone
[8] = human, serum, geometric mean, CYP3A5*1/*1 (n=6)
[9] = human, serum, geometric mean, CYP3A5*1/*3 and *1/*6 (n=9)
[10] = human, serum, geometric mean, CYP3A5*3/*3 non-expressers (n=8)
[11] = human, serum, geometric mean, CYP3A5 expressers (n=15)
[12] = human, serum, CYP3A5*3/*7 (n=1)
[13] = geometric mean, CYP3A5*1/*1 (n=6)
[14] = geometric mean, CYP3A5*1/*3 and *1/*6 (n=9)
[15] = geometric mean, CYP3A5 expressers (n=15)
[16] = after 200 mg KTZ, CYP3A5*3/*7 (n=1)
[17] = after 400 mg KTZ, CYP3A5*3/*7 (n=1)
[18] = geometric mean, after 200 mg KTZ, CYP3A5*3/*3 non-expressers
[19] = geometric mean, after 200 mg KTZ, CYP3A5 expressers
[20] = geometric mean, after 400 mg KTZ, CYP3A5*1/*1
[21] = geometric mean, after 400 mg KTZ, CYP3A5*1/*3 and *1/*6
[22] = geometric mean, after 400 mg KTZ, CYP3A5*3/*3 non-expressers
[23] = geometric mean, after 400 mg KTZ, CYP3A5 expressers

SMILES: CCC(C)n1ncn(-c2ccc(N3CCN(c4ccc(OCC5COC(Cn6cncn6)(c6ccc(Cl)cc6Cl)O5)cc4)CC3)cc2)c1=O (centres unmarked) [Itraconazole]
- Ki,3A5/Ki,3A4 [1]: ≥ 7

SMILES: OC(Cn1cncn1)(Cn1cncn1)c1ccc(F)cc1F [fluconazole]
- changes of midazolam metabolites formation across CYP3A5 genotypes [2]: did not result in differential changes

SMILES: CC(=O)N1CCN(c2ccc(OCC3COC(Cn4ccnc4)(c4ccc(Cl)cc4Cl)O3)cc2)CC1 (centres unmarked) [ketoconazole]
- difference in the AUC0–10hr of ketoconazole between the 6th and 7th day of dosing ([4]; ketoconazole 200 mg or 400 mg): no significant difference
- inhibition of gut CYP3A ([4]; ketoconazole 200 and 400 mg doses): almost complete inhibition

SMILES: Cc1ncc2n1-c1ccc(Cl)cc1C(c1ccccc1F)=NC2 [midazolam]
- midazolam FG in SimCYP ([6]; derived using plasma clearance and hepatic plasma flow): 0.57
- inter-individual variability of midazolam clearance in other studies ([6]; other studies): 3.3- to 5.2 fold
- Clearance Oral GM (90% CI) ([7]; CYP3A5 expressers): 140 (114.5–171.3) L/hr
- Clearance Oral GM (90% CI) ([7]; CYP3A5 non-expressers): 105 (83.5–131.5) L/hr
- clearance [7, 8]: 540 mL/min
- clearance [7, 9]: 550 mL/min
- clearance [7, 10]: 402 mL/min
- clearance [7, 11]: 547 mL/min
- clearance [7, 12]: 318 mL/min
- bioavailability ([7]; human, serum, po, 4 mg, geometric mean, CYP3A5*1/*1 (n=6)): 22%
- bioavailability ([7]; human, serum, po, 4 mg, geometric mean, CYP3A5*1/*3 and *1/*6 (n=9)): 23%
- bioavailability ([7]; human, serum, po, 4 mg, geometric mean, CYP3A5*3/*3 non-expressers (n=8)): 26%
- bioavailability ([7]; human, serum, po, 4 mg, geometric mean, CYP3A5 expressers (n=15)): 23%
- bioavailability ([7]; human, serum, po, 4 mg, CYP3A5*3/*7 (n=1)): 36%
- Tmax ([7]; human, serum, po, 4 mg, Tmax, CYP3A5*3/*7 (n=1)): 1 h
- half-life [7, 8]: 166 min
- half-life [7, 9]: 165 min
- half-life [7, 10]: 183 min
- half-life [7, 11]: 165 min
- half-life [7, 12]: 315 min
- intestinal availability (FG) ([7]; CYP3A5 expressers): 0.35±0.09
- intestinal availability (FG) ([7]; CYP3A5 non-expressers): 0.33±0.06
- CLpo (oral clearance) [7, 13]: 144 L/h
- Cmax /Dose [7, 13]: 1.5 ng/mL
- CLpo (oral clearance) [7, 14]: 137 L/h
- Cmax /Dose [7, 14]: 1.6 ng/mL
- CLpo (oral clearance) [7, 15]: 140 ± 66 L/h and 140 L/h
- Cmax /Dose [7, 15]: 1.6 ± 0.6 ng/mL and 1.6 ng/mL
- CLpo (oral clearance) ([7]; CYP3A5*3/*7 (n=1)): 55.7 L/h
- Cmax /Dose ([7]; CYP3A5*3/*7 (n=1)): 3.4 ng/mL
- Tmax ([7]; CYP3A5 expressers (n=15)): 0.7 h
- inter-individual variability for the CLsys ([7]; this study): 2.3 fold
- inter-individual variability of CLpo ([7]; this study): 7.0 fold
- CLpo (oral clearance) [4, 16]: 4.6 L/h
- Cmax /Dose [4, 16]: 18.1 ng/mL
- CLpo (oral clearance) [4, 17]: 2.7 L/h
- Cmax /Dose [4, 17]: 21.2 ng/mL
- Cmax /Dose ([4]; geometric mean, after 200 mg KTZ, CYP3A5*1/*1): 9.6 ng/mL
- Cmax /Dose ([4]; geometric mean, after 200 mg KTZ, CYP3A5*1/*3 and *1/*6): 7.9 ng/mL
- CLpo (oral clearance) [4, 18]: 7.0 ± 2.0 L/h and 7.0 L/h
- Cmax /Dose [4, 18]: 12.3 ng/mL
- CLpo (oral clearance) [4, 19]: 13.3 ± 5.6 L/h
- Cmax /Dose [4, 19]: 8.5 ng/mL
- CLpo (oral clearance) [4, 20]: 8.2 L/h
- Cmax /Dose [4, 20]: 9.4 ng/mL
- CLpo (oral clearance) [4, 21]: 8.6 L/h
- Cmax /Dose [4, 21]: 8.9 ng/mL
- CLpo (oral clearance) [4, 22]: 4.9 ± 1.3 L/h and 4.9 L/h
- Cmax /Dose [4, 22]: 15.8 ng/mL
- CLpo (oral clearance) [4, 23]: 8.4 ± 3.5 L/h and 8.4 L/h
- Cmax /Dose [4, 23]: 9.1 ng/mL
